Like-named read-outs stand apart in the source and are kept apart here.
Assays:
Pyricularia oryzae = format: cell-based
Alternaria mali = settings: active compound concentration 1 ppm; 3 days incubation in PDB; single active compound

SMILES	Efficacy in % found (Pyricularia oryzae)	Efficacy in % found (Alternaria mali)	Efficacy in % found (Pyricularia oryzae; active compound concentration 0.03 ppm, 4 days incubation in PDB, single active compound)
COP(=S)(OC)Oc1c(Cl)cc(C)cc1Cl [(2) tolclofos-methyl, tolclofos-methyl]	13%	–	–
CC(C)Oc1cccc(NC(=O)c2ccccc2C(F)(F)F)c1 [(3) flutolanil, flutolanil]	–	12%	–
Cc1nn(C)c(F)c1C(=O)Nc1ccccc1C(C)CC(C)C (stereo not shown) [(1-2), N-[2-(1,3-dimethylbutyl)phenyl]-5-fluoro-1,3-dimethyl-1H-pyrazole-4-carboxamide]	–	83%	20%

— US8134012B2 (priority 2005, dated 2012)
